Assay results reported in patent US10023536B2, “Suprametallogels and uses thereof” (Massachusetts Institute of Technology, priority 2014, dated 2018).

Tested on: HeLa cells
Test: Cytotoxicity of the gel components against HeLa cells (MILLIQ water as control)
Assay type: cell-based
Conditions: components of the gel tested separately
Experimental: FIG. 27: cytotoxicities of (1) a gel formed from C-2 and Fe^2+ (“gel”), (2) PEG, and (3) Fe^2+ (“Fe”) against HeLa cells. MILLIQ water (“milliQ”) used as a control.
Because C-2 forms gels with Fe^2+ salts, which are biocompatible, these gels may have applications as therapeutic devices. First, the cytotoxicity of these gels was tested on HeLa cells to determine the effect of the components of the gels on cell viability. Due to the difficulty in assessing the toxicity of gel materials, the components of the gels were tested separately.

Substance: iron
- cytotoxicity compared to MILLIQ water: little cytotoxicity
